In one assay the test system is NCI-H929. The assay is described as follows: Cytostatic activity on human multiple myeloma cell line NCI-H929 (WST-1). It counts as cell-based. To be noted: NCI-H929 cells, test compound 1 μmol/L, WST-1; for inhibition at 1 µM: Homo sapiens, NCI-H929, 72 h, read-out: cytostatic rate (%) H929 (1 μmol/L). A digest of the protocol:
(§1)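 Cytostatic rate is 100 minus % growth relative to DMSO-only wells (100%) and blank wells (0%), read by WST-1 absorbance at 450/690 nm after 2 h. Compound at 1 or 10 μmol/L final was applied for 72 h at 37 °C to cells seeded 24 h earlier.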
A general note: Tetrazolium dyes change colour on reduction, which living cells bring about.

The test system of a further assay is KMS-11. The assay is described as follows: Cytostatic activity on human multiple myeloma cell line KMS-11 (WST-1). The conditions noted are these: KMS-11 cells, test compound 1 μmol/L, WST-1; for inhibition at 1 µM: Homo sapiens, KMS-11, 72 h, read-out: cytostatic rate (%) KMS-11 (1 μmol/L). In kind it is cell-based. A digest of the protocol: as §1
For the next assay, the target named is T1, IGF-1R (Homo sapiens, UniProt P08069).
T1 construct: purchased Upstate Co. 14-465
T1 sequence (P08069 959-1367 limits assumed): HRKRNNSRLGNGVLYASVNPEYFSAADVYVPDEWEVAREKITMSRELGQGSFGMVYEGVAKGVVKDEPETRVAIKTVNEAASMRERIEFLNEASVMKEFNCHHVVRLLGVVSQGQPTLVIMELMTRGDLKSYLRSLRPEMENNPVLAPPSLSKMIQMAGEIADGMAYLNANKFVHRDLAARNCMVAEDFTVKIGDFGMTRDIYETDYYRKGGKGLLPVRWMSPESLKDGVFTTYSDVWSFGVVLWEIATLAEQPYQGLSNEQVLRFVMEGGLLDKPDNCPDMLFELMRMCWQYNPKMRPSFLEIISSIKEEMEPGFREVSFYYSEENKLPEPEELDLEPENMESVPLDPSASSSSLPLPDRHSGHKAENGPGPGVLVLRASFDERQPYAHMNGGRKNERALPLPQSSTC
Description: IGF-1R inhibitory activity (kinase reaction, time-resolved fluoroimmunoassay). In kind it is biochemical. The conditions noted are these: IGF-1R active recombinant enzyme, test compound 10 μmol/L. A digest of the protocol:
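Compounds were tested at a single 10 μmol/L concentration. Each was incubated with recombinant IGF-1R (200 μg/L), 10 mmol/L ATP, MgCl2/MnCl2 and Na3VO4 (pH 7.5) on immobilized poly(Glu-Tyr) peptide for 30 min at 24° C. Eu-anti-phosphotyrosine time-resolved fluorescence (340/615 nm) gave relative activity against no-compound and no-enzyme wells, reported as % inhibition.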

The structures appear in SMILES notation.

For `CON(C)C(=O)c1ccc(/C=C/c2n[nH]c3ccccc23)c(NC(=O)c2sccc2C)c1` [Compound 320, (E)-{2-[2-(1H-indazol-3-yl)vinyl]-5-(N-methoxy N-methylcarbamoyl)phenyl}-3-methyl-2-carboxamide], the “cytostatic rate (%) H929 (1 μmol/L)” value in the assay with NCI-H929 came to 122.8%. Besides, the “cytostatic rate (%) KMS-11 (1 μmol/L)” value in the assay with KMS-11 is recorded as 112.1%. Besides, the “inhibitory activity (%) at 10 μmol/L” value at IGF-1R is listed as 102.1%.

Regarding `COCCCN1CCN(Cc2ccc(/C=C/c3n[nH]c4ccccc34)c(N3Cc4c(N)cccc4C3=O)c2)CC1` [Compound 321, (E)-4-amino-2-{5-[4-(3-methoxypropyl)piperazin-1-ylmethyl]-2-[2-(1H-indazol-3-yl)vinyl]phenyl}-2,3-dihydroisoindole-1-one], in the assay on NCI-H929, the inhibition at 1 µM is 122%. In addition, the “cytostatic rate (%) KMS-11 (1 μmol/L)” value in the assay with KMS-11 is 102.3%. Further, the inhibition at 10 µM on IGF-1R was determined as 101%.

In the case of `Cc1ccsc1C(=O)Nc1cc(CN2CCC(CCC(C)(C)O)CC2)ccc1/C=C/c1n[nH]c2ccccc12` [Compound 322, (E)-N-{5-[4-(3-hydroxy-3-methylbutyl)piperidin-1-ylmethyl]-2-[2-(1H-indazol-3-yl)vinyl]phenyl}-3-methylthiophene-2-carboxamide], the inhibition at 1 µM in the assay with NCI-H929 worked out at 122%; in the assay on KMS-11, 106%. In addition, on IGF-1R, the inhibition at 10 µM is 99.1%.

Regarding `COCCCN1CCN(Cc2ccc(/C=C/c3n[nH]c4ccccc34)c(N3Cc4c(N)cccc4C3=O)c2)CC1` [Compound 323, (E)-4-amino-2-{2-[2-(1H-indazol-3-yl)vinyl]-5-[4-(3-methoxypropyl)piperazin-1-ylmethyl]phenyl}-2,3-dihydroisoindol-1-one], the “cytostatic rate (%) H929 (1 μmol/L)” value with NCI-H929 came out at 107.6%. Further, the “cytostatic rate (%) KMS-11 (1 μmol/L)” value in the assay on KMS-11 was determined as 73.8%. Moreover, on IGF-1R, the “inhibitory activity (%) at 10 μmol/L” value was found to be 105.8%.

Regarding `COC1CCN(C(=O)c2ccc(/C=C/c3n[nH]c4ccccc34)c(N3C(=O)c4cccc(N)c4C3=O)c2)CC1` [Compound 325], in the assay with NCI-H929, the “cytostatic rate (%) H929 (1 μmol/L)” value amounted to 118.4%. The “cytostatic rate (%) KMS-11 (1 μmol/L)” value in the assay on KMS-11 stood at 100.1%. Moreover, the “inhibitory activity (%) at 10 μmol/L” value at IGF-1R worked out at 100.2%.

For `CN(C)C(=O)c1ccc(/C=C/c2n[nH]c3ccccc23)c(N2C(=O)c3cccc(N)c3C2=O)c1` [Compound 326, (E)-3-(4-amino-1,3-dioxo-1,3-dihydroisoindol-2-yl)-4-[2-(1H-indazol-3-yl)vinyl]-N,N-dimethylbenzamide], the figures for the inhibition at 1 µM with NCI-H929 and in the assay with KMS-11 were 118% and 102%, respectively. Besides, the inhibition at 10 µM at IGF-1R came to 103%.

As for `Cc1ccsc1C(=O)Nc1cc(C(=O)N(C)CCO)ccc1/C=C/c1n[nH]c2ccccc12` [Compound 327, (E)-N-{5-[N-(2-hydroxyethyl)-N-methylcarbamoyl]-2-[2-(1H-indazol-3-yl)vinyl]phenyl}-3-methylthiophene-2-carboxamide], the values for the inhibition at 1 µM in the assay on NCI-H929 and in the assay on KMS-11 were 116% and 98%, respectively. In addition, the inhibition at 10 µM at IGF-1R came out at 101%.

Take `Cc1ccsc1C(=O)Nc1cc(C(=O)N(C)C2CCN(C)CC2)ccc1/C=C/c1n[nH]c2ccccc12` [Compound 328, (E)-N-{2-[2-(1H-indazol-3-yl)vinyl]-5-[N-methyl-N-(1-methylpiperidin-4-yl)carbamoyl]phenyl}-3-methylthiophene-2-carboxamide]: the inhibition at 1 µM amounted to 116% in the assay on NCI-H929 and 105% in the assay with KMS-11. In addition, the inhibition at 10 µM at IGF-1R was found to be 97.9%.

`Cc1ccsc1C(=O)Nc1cc(CN2CCN(C)C(=O)C2)ccc1/C=C/c1n[nH]c2ccccc12` [Compound 329, (E)-N-{2-[2-(1H-indazol-3-yl)vinyl]-5-(4-methyl-3-oxopiperazine-1-ylmethyl)phenyl}-3-methylthiophene-2-carboxamide]: the inhibition at 1 µM in the assay with NCI-H929 came out at 132%; in the assay on KMS-11, 116%. For the same compound, the inhibition at 10 µM on IGF-1R came out at 105%.

Consider `Cc1ccsc1C(=O)Nc1cc(CN2CC[C@@H](O)C2)ccc1/C=C/c1n[nH]c2ccccc12` [Compound 330, (R)-(E)-N-{5-(3-hydroxypyrrolidin-1-ylmethyl)-2-[2-(1H-indazol-3-yl)vinyl]phenyl}-3-methylthiophene-2-carboxamide], for which the inhibition at 1 µM with NCI-H929 amounted to 131%; with KMS-11, 112%. Also, the inhibition at 10 µM on IGF-1R is 102%.

For the compound `Cc1ccsc1C(=O)Nc1cc(CN2CCNC[C@H]2C)ccc1/C=C/c1n[nH]c2ccccc12` [Compound 331, (R)-(E)-N-{2-[2-(1H-indazol-3-yl)vinyl]-5-(2-methylpiperazin-1-ylmethyl)phenyl}-3-methylthiophene-2-carboxamide], the inhibition at 1 µM in the assay on NCI-H929 came to 116%; with KMS-11, 102%. For the same compound, on IGF-1R, the inhibition at 10 µM was determined as 103%.

On to `Cn1cccc1C(=O)Nc1cc(CN2CCNCC2)ccc1/C=C/c1n[nH]c2ccccc12` [Compound 332], for which the “cytostatic rate (%) H929 (1 μmol/L)” value in the assay on NCI-H929 came out at 113.9%. Also, in the assay with KMS-11, the “cytostatic rate (%) KMS-11 (1 μmol/L)” value was determined as 89.9%. At IGF-1R, the “inhibitory activity (%) at 10 μmol/L” value turned out to be 102.6%.

As to `COc1c(OCC(=O)N2CCN(C)CC2)ccc(/C=C/c2n[nH]c3ccccc23)c1NC(=O)c1sccc1C` [Compound 333, (E)-N-{6-[2-(1H-indazol-3-yl)vinyl]-2-methoxy-3-[2-(4-methylpiperazin-1-yl)-2-oxoethoxy]phenyl}-3-methylthiophene-2-carboxamide], the inhibition at 1 µM in the assay with NCI-H929 was 118%; with KMS-11, 119%. Moreover, the inhibition at 10 µM on IGF-1R stood at 109%.

Take `COc1c(OCCN2C(=O)CNC2=O)ccc(/C=C/c2n[nH]c3ccccc23)c1NC(=O)c1sccc1C` [Compound 334, (E)-N-{6-[2-(1H-indazol-3-yl)vinyl]-2-methoxy-3-[2-(2,5-dioxoimidazolidin-1-yl)ethoxy]phenyl}-3-methylthiophene-2-carboxamide]: the inhibition at 1 µM with NCI-H929 came to 111%; in the assay with KMS-11, 97.5%. Moreover, the inhibition at 10 µM at IGF-1R came out at 102%.

For `COc1c(OCC(=O)N2CCOCC2)ccc(/C=C/c2n[nH]c3ccccc23)c1NC(=O)c1sccc1C` [Compound 335, (E)-N-{6-[2-(1H-indazol-3-yl)vinyl]-2-methoxy-3-(2-morpholin-4-yl-2-oxoethoxy)phenyl}-3-methylthiophene-2-carboxamide], the results for the inhibition at 1 µM in the assay on NCI-H929 and with KMS-11 were 117% and 110%, respectively. Moreover, at IGF-1R, the inhibition at 10 µM came to 102%.

As for `Cc1ccsc1C(=O)Nc1cc(CN2CCNC[C@@H]2C)ccc1/C=C/c1n[nH]c2ccccc12` [Compound 336, (E)-(S)—N-{2-[2-(1H-indazol-3-yl)vinyl]-5-(2-methylpiperazin-1-ylmethyl)phenyl}-3-methylthiophene-2-carboxamide], the inhibition at 1 µM came to 131% in the assay with NCI-H929 and 115% in the assay with KMS-11. For the same compound, on IGF-1R, the inhibition at 10 µM came out at 101%.

In the case of `COc1c(OCCN2CCCC2=O)ccc(/C=C/c2n[nH]c3ccccc23)c1NC(=O)c1sccc1C` [Compound 337, (E)-N-{6-[2-(1H-indazol-3-yl)vinyl]-2-methoxy-3-[2-(2-oxopyrrolidin-1-yl)ethoxy]phenyl}-3-methylthiophene-2-carboxamide], the inhibition at 1 µM in the assay on NCI-H929 came out at 120%; with KMS-11, 121%. Besides, the inhibition at 10 µM on IGF-1R turned out to be 97.4%.

Regarding `CCCS(=O)(=O)NCCOc1ccc(/C=C/c2n[nH]c3ccccc23)c(NC(=O)c2sccc2C)c1OC` [Compound 338, (E)-N-{6-[2-(1H-indazol-3-yl)vinyl]-2-methoxy-3-[2-(propylsulfonylamino)ethoxy]phenyl}-3-methylthiophene-2-carboxamide], the inhibition at 1 µM in the assay on NCI-H929 is 120%; with KMS-11, 122%. In addition, the inhibition at 10 µM at IGF-1R stood at 99%.

Consider `CCN(CCO)CCCOc1ccc(/C=C/c2n[nH]c3ccccc23)c(NC(=O)c2sccc2C)c1OC` [Compound 339, (E)-N-{3-{3-[N-ethyl(2-hydroxyethyl)amino]propoxy}-6-[2-(1H-indazol-3-yl)vinyl]-2-methoxyphenyl}-3-methylthiophene-2-carboxamide], for which the values for the inhibition at 1 µM in the assay with NCI-H929 and with KMS-11 were 119% and 118%, respectively. The inhibition at 10 µM on IGF-1R came out at 104%.

Turning to `COc1c(OCCCN2CCC[C@H]2CO)ccc(/C=C/c2n[nH]c3ccccc23)c1NC(=O)c1sccc1C` [Compound 340, (E)-(s)-N-{3-[3-(2-hydroxymethylpyrrolidin-1-yl)propoxy]-6-[2-(1H-indazol-3-yl)vinyl]-2-methoxyphenyl}-3-methylthiophene-2-carboxamide], the inhibition at 1 µM in the assay on NCI-H929 turned out to be 121%; in the assay with KMS-11, 118%. On IGF-1R, the inhibition at 10 µM is 103%.

For `COc1c(OCCCN2CCNC(=O)C2)ccc(/C=C/c2n[nH]c3ccccc23)c1NC(=O)c1sccc1C` [Compound 341, (E)-N-{6-[2-(1H-indazol-3-yl)vinyl]-2-methoxy-3-[3-(3-oxopiperazin-1-yl)propoxy]phenyl}-3-methylthiophene-2-carboxamide], the inhibition at 1 µM with NCI-H929 is 120%; in the assay with KMS-11, 124%. For the same compound, the inhibition at 10 µM at IGF-1R came to 105%.

`COc1c(OCCCN2CCOCC2)ccc(/C=C/c2n[nH]c3ccccc23)c1NC(=O)c1sccc1C` [Compound 342, (E)-N-{6-[2-(1H-indazol-3-yl)vinyl]-2-methoxy-3-(3-morpholin-4-yl)propoxyphenyl}-3-methylthiophene-2-carboxamide]: the “cytostatic rate (%) H929 (1 μmol/L)” value with NCI-H929 amounted to 118.7%. The “cytostatic rate (%) KMS-11 (1 μmol/L)” value in the assay with KMS-11 is recorded as 122.6%. Besides, the “inhibitory activity (%) at 10 μmol/L” value at IGF-1R is reported as 101.6%.

For the origin of these results see patent publication US7605272B2, “IGF-1R inhibitor” (Kyowa Hakko Kirin Co., Ltd., priority 2005, dated 2009).
